Assay results published in publication PMC5108564, “Use of ferrous iron by metallo-β-lactamases” (Journal of Inorganic Biochemistry, 2016).
Where “and” joins values, the source holds several entries; their conditions need not be identical. Identical values can stand only once.

How the values were obtained:
[1] = system: O=C(Cc1cccs1)N[C@@H]1C(=O)N2C(C(=O)O)=C(/C=C/c3ccc([N+](=O)[O-])cc3[N+](=O)[O-])CS[C@H]12; assay: purified protein, by the assay type; conditions: other: nitrocefin as substrate
[2] = system: C[C@@H](O)[C@H]1C(=O)N2C(C(=O)O)=C(S[C@@H]3CN[C@H](C(=O)N(C)C)C3)[C@H](C)[C@H]12; assay: purified protein, by the assay type; conditions: other: meropenem as substrate, [E] 2 nM
Method: (§5) Steady-state kinetic studies were carried out using a Pherastar FS microplate reader and UV-Star 96 well clear microplates (Greiner Bio-One). Samples of 1 mM apo-enzyme were pre-incubated with two equivalents of TCEP·HCl for 5 min prior to addition of 3.5 equivalents of the desired metal before dilution to concentrations required for kinetic assays. For Fe(II)-substituted enzymes, plates were prepared at ≤ 2 ppm O2 using deoxygenated buffer and sealed prior to absorbance readings. […] Substrate concentrations ranged between 400 μM and 0.4 μM. The Michaelis-Menten equation was fitted to data by non-linear regression using GraphPad Prism software to calculate the Michaelis-Menten constant and the limiting rate [43].

di-Fe(II) VIM-2 [3] = target: T1, di-Fe(II) VIM-2 (Pseudomonas aeruginosa, UniProt Q9K2N0); conditions: meropenem as substrate, VIM-2 Fe(II), [E] 30 nM, low O2
Method: as §5

di-Zn(II) VIM-2 [4] = target: T2, di-Zn(II) VIM-2 (Pseudomonas aeruginosa, UniProt Q9K2N0); conditions: meropenem as substrate, VIM-2 Zn(II), [E] 5 nM
Method: as §5

di-Fe(II) BcII [5] = target: T3, di-Fe(II) BcII (Bacillus cereus, UniProt P04190); assay: Inhibition assay with nitrocefin as reporter substrate; assay type: biochemical
T3 construct: made in house; host or cells: E. coli BL21(DE3)pLysS
T3 sequence (P04190 31-257): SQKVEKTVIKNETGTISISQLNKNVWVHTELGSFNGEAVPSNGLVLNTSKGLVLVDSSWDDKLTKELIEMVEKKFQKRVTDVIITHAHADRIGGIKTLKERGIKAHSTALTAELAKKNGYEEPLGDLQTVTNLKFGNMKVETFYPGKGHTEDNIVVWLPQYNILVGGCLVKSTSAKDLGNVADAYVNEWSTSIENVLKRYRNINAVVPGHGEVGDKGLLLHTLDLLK
Method: (§1) Enzyme concentrations were the same as those employed in equilibrium kinetic studies. […] Residual enzyme activity was determined for a range of inhibitor concentrations. Non-linear regression fitting of IC50 curves was carried out using a three-parameter dose-response curve in GraphPad Prism. Errors are expressed as: σlogIC50/logIC50×IC50 .
(§2) MBL inhibition is a current target for medicinal chemistry, [63]. Given the observed differences in metal binding geometries between the di-Fe(II) and di-Zn(II) form of BcII and in the kinetic properties of di-Fe(II) BcII and VIM-2 compared to their di-Zn(II) enzymes, we then investigated whether the two metal-substituted BcII enzymes might respond differently to known MBL inhibitors (Table 3 and Fig. S12). We were particularly interested to see if the two enzyme forms responded differently to thiol-based MBL inhibitors, since the sulfur often bridges the two metal centres as an analogue of the bridging water during inhibition, [64].

di-Zn(II) BcII [6] = target: T4, di-Zn(II) BcII (Bacillus cereus, UniProt P04190); assay: as above; assay type: biochemical
T4 construct: made in house; host or cells: E. coli BL21(DE3)pLysS
T4 sequence (P04190 31-257): as above
Method: as §1, §2

di-Zn(II) BcII [7] = target: T4, di-Zn(II) BcII; assay: Stopped-flow UV/Vis absorption kinetics of nitrocefin hydrolysis; assay type: biochemical; conditions: for Substrate Decay: 1:1 enzyme:nitrocefin, 5 °C; for Product accumulation: 1:1, 5 °C
Method: (§3) All metal solutions and metal-substituted enzymes for stopped-flow kinetics were prepared at ≤ 40 ppm O2 using deoxygenated buffers. Buffers used were: 50 mM HEPES pH 7.5, 200 mM NaCl; 50 mM MES pH 6.5, 200 mM NaCl; 50 mM MES pH 5.5, 200 mM NaCl. All buffers were treated with Chelex 100 to remove residual metal ions. Aliquots of apo-enzyme were diluted to 100 μM by addition of reaction buffer (1 mL final volume). The enzyme was incubated with two equivalents of tris(2-carboxyethyl)phosphine hydrochloride salt (TCEP·HCl), by addition of 2 μL of a 100 mM stock, for 5 min. Metal-substituted enzymes were then produced by the addition of 3.5 equivalents of metal salt to the apo-enzyme (3.5 μL of a 100 mM stock in buffer). […] Spectra were recorded over 100 s using a photodiode-array detector. Subsequent analysis of kinetic traces was carried out using Origin 8.5 [41]. Curves corresponding to substrate depletion (390 nm) and product accumulation (485 nm) were fitted by a single exponential function, whilst 665 nm features were fitted by a double exponential function.
(§4) Note that difference spectra were employed to identify the λmax of the feature and indicate that the feature corresponds to an independent species. […] Thus the observation of a visible reaction intermediate absorbing at 665 nm depends on the particular metal-enzyme combination employed.

di-Fe(II) VIM-2 [8] = target: T1, di-Fe(II) VIM-2; assay: as above; assay type: biochemical; set-up: His-tag (3C protease site) (N, cleaved yes); made in house; host or cells: E. coli BL21(DE3)pLysS; conditions: 1:1, 5 °C
Method: as §3, §4

di-Zn(II) VIM-2 [9] = target: T2, di-Zn(II) VIM-2; assay: as above; assay type: biochemical; set-up: His-tag (3C protease site) (N, cleaved yes); made in house; host or cells: E. coli BL21(DE3)pLysS; conditions: 1:1, 5 °C
Method: as §3, §4

di-Fe(II) BcII [10] = target: T3, di-Fe(II) BcII; assay: as above; assay type: biochemical; set-up: k1 / k-1 / k2 / k3 / k4 / k5: unit not given here; conditions: for Substrate Decay / Product accumulation / Intermediate Decay / Intermediate accumulation: Fe(II), 1:1, 5 °C; for k1: 50 µM enzyme, 50 µM nitrocefin
Method: as §3, §4
The observation of an intermediate at 665 nm with di-Fe(II) BcII strongly correlates with increasing pH, with a larger change in absorbance amplitude at pH 7.5 (ΔAbsmax at pH 7.5 is 0.25 compared to ΔAbsmax at pH 6.5 and 5.5 of 0.15 and 0.05, respectively, Fig. 2 & Figs. S4–5). […] Data fitting using the Kintek Explorer package was unable to distinguish between linear and branched pathways (Fig. S11), but in both fittings the decay of the intermediate species was identified as the rate-limiting step (k3 and k4 in Tables S4 and S5, respectively). Although intermediate decay is apparently rate limiting, a negligible amount of intermediate is seen at pH 5.5. This may be explained either by a branched pathway, in which the branch with no intermediate is favoured by lower pH, or by a linear pathway in which the rate of decay of the intermediate rises with a decrease in pH thus preventing an observable accumulation of intermediate.

[11] = Kintek Explorer fit, branched mechanism, pH 7.5, 5°C
[12] = Kintek Explorer fit, linear mechanism, pH 7.5, 5°C

Compound: di-Fe(II) BcII (Bacillus cereus)
- Km ([1]; BcII Fe(II), [E] 2 nM, low O2): 11 ± 2 µM
- kcat ([1]; BcII Fe(II), [E] 2 nM, low O2): 12.5 s⁻¹
- kcat/Km ([1]; BcII Fe(II), [E] 2 nM, low O2): 1.2e+06 M⁻¹ s⁻¹
- Km ([2]; BcII Fe(II), low O2): 230 ± 30 µM
- kcat ([2]; BcII Fe(II), low O2): 38 ± 2 s⁻¹
- kcat/Km ([2]; BcII Fe(II), low O2): 170000 M⁻¹ s⁻¹

Compound: C[C@@H](O)[C@H]1C(=O)N2C(C(=O)O)=C(S[C@@H]3CN[C@H](C(=O)N(C)C)C3)[C@H](C)[C@H]12 [meropenem]
- Km (di-Fe(II) VIM-2 [3]): 16 ± 2 µM
- kcat (di-Fe(II) VIM-2 [3]): 0.5 ± 0.0 s⁻¹
- Km (di-Zn(II) VIM-2 [4]): 10 ± 2 µM
- kcat (di-Zn(II) VIM-2 [4]): 2.4 ± 0.1 s⁻¹

Compound: di-Zn(II) BcII (Bacillus cereus)
- Km ([1]; BcII Zn(II), [E] 2 nM): 12 ± 2 µM
- kcat ([1]; BcII Zn(II), [E] 2 nM): 10.1 s⁻¹
- kcat/Km ([1]; BcII Zn(II), [E] 2 nM): 820000 M⁻¹ s⁻¹
- Km ([2]; BcII Zn(II)): 220 ± 20 µM
- kcat ([2]; BcII Zn(II)): 89 ± 3 s⁻¹
- kcat/Km ([2]; BcII Zn(II)): 400000 M⁻¹ s⁻¹

Compound: O=C(O)/C(S)=C/c1c(Cl)ccc(Cl)c1Cl [ML302F]
- IC50 (di-Fe(II) BcII [5]): 0.38 ± 0.08 µM
- fold difference in IC50 (di-Fe(II) BcII [5]; di-Fe(II) BcII versus di-Zn(II) BcII): ~10 fold
- IC50 (di-Zn(II) BcII [6]): 0.046 ± 0.001 µM

Compound: di-Fe(II) VIM-2 (Pseudomonas aeruginosa)
- Km ([1]; VIM-2 Fe(II), [E] 1 nM, low O2): 32 ± 5 µM
- kcat ([1]; VIM-2 Fe(II), [E] 1 nM, low O2): 44 s⁻¹
- kcat/Km ([1]; VIM-2 Fe(II), [E] 1 nM, low O2): 1.4e+06 M⁻¹ s⁻¹

Compound: O=C(Cc1cccs1)N[C@@H]1C(=O)N2C(C(=O)O)=C(/C=C/c3ccc([N+](=O)[O-])cc3[N+](=O)[O-])CS[C@H]12 [nitrocefin]
- Substrate Decay (di-Zn(II) BcII [7]; pH 5.5, 390 nm): 4.16 s⁻¹ and 4.16 ± 0.01 s⁻¹
- Product accumulation (di-Zn(II) BcII [7]; pH 5.5, 485 nm): 4.13 ± 0.01 s⁻¹
- Substrate Decay (di-Zn(II) BcII [7]; pH 6.5, 390 nm): 3.24 ± 0.01 s⁻¹
- Product accumulation (di-Zn(II) BcII [7]; pH 6.5, 485 nm): 3.29 ± 0.01 s⁻¹
- Substrate Decay (di-Zn(II) BcII [7]; pH 7.5, 390 nm): 2.55 s⁻¹ and 2.55 ± 0.01 s⁻¹
- Product accumulation (di-Zn(II) BcII [7]; pH 7.5, 485 nm): 2.75 ± 0.01 s⁻¹
- Substrate Decay (di-Fe(II) VIM-2 [8]; pH 5.5, 390 nm): 35 s⁻¹ and 35 ± 1 s⁻¹
- Product accumulation (di-Fe(II) VIM-2 [8]; pH 5.5, 485 nm): 23.4 ± 0.5 s⁻¹
- Substrate Decay (di-Fe(II) VIM-2 [8]; pH 6.5, 390 nm): 0.24 s⁻¹ and 0.24 ± 0.01 s⁻¹
- Product accumulation (di-Fe(II) VIM-2 [8]; pH 6.5, 485 nm): 0.44 ± 0.01 s⁻¹
- Substrate Decay (di-Fe(II) VIM-2 [8]; pH 7.5, 390 nm): 0.15 s⁻¹ and 0.15 ± 0.01 s⁻¹
- Product accumulation (di-Fe(II) VIM-2 [8]; pH 7.5, 485 nm): 0.35 ± 0.01 s⁻¹
- Substrate Decay (di-Zn(II) VIM-2 [9]; pH 5.5, 390 nm): 190 s⁻¹ and 190 ± 4 s⁻¹
- Product accumulation (di-Zn(II) VIM-2 [9]; pH 5.5, 485 nm): 93 ± 2 s⁻¹
- Intermediate Decay (di-Zn(II) VIM-2 [9]; pH 5.5, 665 nm): 120 ± 10 s⁻¹
- Intermediate accumulation (di-Zn(II) VIM-2 [9]; pH 5.5, 665 nm): 220 ± 20 s⁻¹
- Substrate Decay (di-Zn(II) VIM-2 [9]; pH 6.5, 390 nm): 290 ± 10 s⁻¹
- Product accumulation (di-Zn(II) VIM-2 [9]; pH 6.5, 485 nm): 130 ± 4 s⁻¹
- Intermediate Decay (di-Zn(II) VIM-2 [9]; pH 6.5, 665 nm): 160 ± 30 s⁻¹
- Intermediate accumulation (di-Zn(II) VIM-2 [9]; pH 6.5, 665 nm): 320 ± 80 s⁻¹
- Substrate Decay (di-Zn(II) VIM-2 [9]; pH 7.5, 390 nm): 320 s⁻¹ and 320 ± 30 s⁻¹
- Product accumulation (di-Zn(II) VIM-2 [9]; pH 7.5, 485 nm): 140 ± 5 s⁻¹
- Intermediate Decay (di-Zn(II) VIM-2 [9]; pH 7.5, 665 nm): 180 ± 50 s⁻¹
- Substrate Decay (di-Fe(II) BcII [10]; pH 5.5, 390 nm): 3.88 s⁻¹ and 3.88 ± 0.01 s⁻¹
- Product accumulation (di-Fe(II) BcII [10]; pH 5.5, 485 nm): 5.78 ± 0.01 s⁻¹
- Substrate Decay (di-Fe(II) BcII [10]; pH 6.5, 390 nm): 5.25 ± 0.01 s⁻¹
- Product accumulation (di-Fe(II) BcII [10]; pH 6.5, 485 nm): 4.27 ± 0.01 s⁻¹
- Intermediate Decay (di-Fe(II) BcII [10]; pH 6.5, 665 nm): 1.2 ± 0.1 s⁻¹
- Intermediate accumulation (di-Fe(II) BcII [10]; pH 6.5, 665 nm): 18.31 ± 0.01 s⁻¹
- Substrate Decay (di-Fe(II) BcII [10]; pH 7.5, 390 nm): 7.25 s⁻¹ and 7.25 ± 0.01 s⁻¹
- Product accumulation (di-Fe(II) BcII [10]; pH 7.5, 485 nm): 7.20 ± 0.01 s⁻¹
- Intermediate Decay (di-Fe(II) BcII [10]; pH 7.5, 665 nm): 1.4 ± 0.1 s⁻¹
- Intermediate accumulation (di-Fe(II) BcII [10]; pH 7.5, 665 nm): 20.32 ± 0.01 s⁻¹
- k1 (di-Fe(II) BcII [10]; [11]): 239000
- k2 (di-Fe(II) BcII [10]; [11]): 46
- k3 (di-Fe(II) BcII [10]; [11]): 73.4
- k-1 (di-Fe(II) BcII [10]; [11]): 0.0000001
- k5 (di-Fe(II) BcII [10]; Kintek Explorer fit, branched mechanism, pH 7.5, 5°C, fixed): 100000000
- k4 (di-Fe(II) BcII [10]; Kintek Explorer fit, branched mechanism, pH 7.5, 5°C, intermediate decay, rate-limiting): 4.18
- k1 (di-Fe(II) BcII [10]; [12]): 225000
- k2 (di-Fe(II) BcII [10]; [12]): 82.7
- k-1 (di-Fe(II) BcII [10]; [12]): 0.000000403
- k4 (di-Fe(II) BcII [10]; Kintek Explorer fit, linear mechanism, pH 7.5, 5°C, fixed): 100000000
- k3 (di-Fe(II) BcII [10]; Kintek Explorer fit, linear mechanism, pH 7.5, 5°C, intermediate decay, rate-limiting): 7.2

Compound: O=C(O)CN(CCN(CC(=O)O)CC(=O)O)CC(=O)O [EDTA]
- IC50 (di-Fe(II) BcII [5]): 4700 ± 100 µM
- IC50 (di-Zn(II) BcII [6]): 7500 ± 300 µM

Compound: O=C(O)C(S)c1ccccc1 (stereo not shown) [Thiomandelic acid]
- IC50 (di-Fe(II) BcII [5]): 2.8 ± 0.8 µM
- IC50 (di-Zn(II) BcII [6]): 1.3 ± 0.3 µM

Compound: di-Zn(II) VIM-2 (Pseudomonas aeruginosa)
- Km ([1]; VIM-2 Zn(II), [E] 0.1 nM): 9 ± 1 µM
- kcat ([1]; VIM-2 Zn(II), [E] 0.1 nM): 143 s⁻¹
- kcat/Km ([1]; VIM-2 Zn(II), [E] 0.1 nM): 1.6e+07 M⁻¹ s⁻¹
